Consider two molecules from US20220389047A1, “O-GLCNACYLATED PROTEIN-LIKE SUBSTANCE AND FIBROSIS THERAPEUTIC DRUG CONTAINING SAME” (KYUSHU UNIVERSITY, NATIONAL UNIVERSITY CORPORATION, priority 2019, published 2022).

One experiment has as its system NHDF. As to the kind of experiment: Chemotaxis of NHDF under agarose gel containing the substance. As to conditions: FIG. 10, comparison of polymer, monomer, GlcNAc and PBS. Format: cell-based, human. As to the method:
Using AC-GlcNAc (10-mer) as an O-GlcNAcylated protein-like substance, 250 μg/mL AC-GlcNAc (10-mer) was mixed with an agarose gel to prepare an O-GlcNAcylated protein-like substance-containing agarose gel. In addition, a PBS-containing agarose gel was prepared using PBS instead of the O-GlcNAcylated protein-like substance. A glass plate was placed in a petri dish, each agarose gel was added dropwise onto the glass plate, NHDF was further seeded on the entire glass plate, and incubation was performed for one day.
Next, agarose gels having blending amounts of 50 μg/mL, 100 μg/mL, and 250 μg/mL of the O-GlcNAcylated protein-like substance were prepared, and the chemotaxis of NHDF was evaluated in the same manner as above. […]
Next, the chemotaxis of NHDF by an O-GlcNAcylated protein-like substance was evaluated. The materials used were the O-GlcNAcylated protein-like substance prepared in Polymerization Example 1, the AC-GlcNAc monomer prepared in Polymerization Example 5, and N-acetylglucosamine (GlcNAc) and PBS used in Example 2, and the chemotaxis of NHDF was evaluated in the same manner as above. […]
Next, it was evaluated by the same method as above whether or not there was a difference in the chemotaxis of NHDF due to the difference in the degree of polymerization of the O-GlcNAcylated protein-like substance. […]

A further experiment concerns NHDF GDF15. As to the kind of experiment: Western blotting of GDF15 expression in NHDF. In kind it is cell-based, human. As to conditions: 50 μg/mL, 24 hours, versus control with nothing added. As to the method:
50 μg/mL of the O-GlcNAcylated protein-like substance, the AC-GlcNAc monomer, or N-acetylglucosamine (GlcNAc) prepared in Polymerization Examples 1 to 5 was added to NHDF, and incubation was performed for 24 hours. After the incubation, the expression of NHDF GDF15 was examined by Western blotting. Furthermore, the control was one to which nothing was added.
Furthermore, 10 μg/mL, 50 μg/mL, and 100 μg/mL of the O-GlcNAcylated protein-like substances (AC-GlcNAc10, mass-average molecular weight: 4,000, number-average molecular weight: 3,100) prepared in Polymerization Example 1 were each added to NHDF, and incubation was performed for 24 hours. After the incubation, the expression of NHDF GDF15 was observed by Western blotting. Furthermore, the control was one to which nothing was added.

For the molecule `C=CC(=O)OCCC(=O)NC1OC(CO)[C@@H](O)C(O)C1NC(C)=O` (stereo partly shown) [AC-GlcNAc monomer], the “invasion of cells under the agarose gel” value in the experiment with NHDF was “cells invaded under the agarose gel only with the O-GlcNAcylated protein-like substance of Polymerization Example 1”. For the same molecule, in the experiment on NHDF GDF15, the “expression of GDF15 (Western blotting)” value is reported as “almost the same effect as the control”.
The corresponding values for `CC(=O)N[C@H]1C(O)O[C@H](CO)[C@@H](O)[C@@H]1O` (stereo partly shown) [GlcNAc, N-acetylglucosamine] are “cells invaded under the agarose gel only with the O-GlcNAcylated protein-like substance of Polymerization Example 1” and “almost the same effect as the control”.
